{
  "source": "ChEMBL document CHEMBL1127961",
  "about": "“Antineoplastic agents 315. Isolation and structure of the marine sponge cancer cell growth inhibitor phakellistatin 5” (1994)",
  "tested_on": "NCI",
  "test": "Antineoplastic activity against NCI human leukemia cancer cell line",
  "type": "functional",
  "note": "Several values for one entry are separate records, joined by “and”; a condition that tells them apart may be missing. Identical values can stand only once.",
  "data": [
    {"molecule": "CC[C@H](C)[C@@H]1NC(=O)C(C)NC(=O)[C@H](CCSC)NC(=O)C(C)NC(=O)[C@H](CC(N)=O)NC(=O)[C@H](Cc2ccccc2)NC(=O)C2CCCN2C1=O", "note": "(single isomer, unassigned) [PHAKELLI STATIN 5]", "values": [
      {"measurement": "GI50", "result": "3000 nM and 600 nM"}
    ]}
  ]
}
